Source: patent publication US20260250318A1, “COMPOSITIONS AND METHODS FOR CROSSING THE BLOOD BRAIN BARRIER” (VOYAGER THERAPEUTICS, INC., priority 2022, published 2026)

Legend:
Conditions in all cases: synthetic library passage 3, intravenous, relative to wild-type AAV9
brain [1] = test: NGS fold enrichment of synthetic library (passage 3) in C57Bl/6 mice, first cross-species screen; assay type: in vivo
How it was run: (§1)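 Passage-3 synthetic capsid library given intravenously […] to NHPs (2-4 years) and BALB/c or C57Bl/6 mice (n=3, 6-8 weeks). After e.g. 28 days, tissue RNA was RT-PCR amplified and NGS-sequenced; values are fold enrichment of each variant relative to wild-type AAV9.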

[2] = test system: brain, spinal cord, and DRG of the NHPs; test: NGS fold enrichment of synthetic library (passage 3) in NHPs, first cross-species screen; assay type: in vivo, cynomolgus macaques (Macaca fascicularis)
How it was run: as §1

brain [3] = test: NGS fold enrichment of synthetic library (passage 3) in BALB/c mice, first cross-species screen; assay type: in vivo
How it was run: as §1

[4] = RNA from brain of C57Bl/6 mice, NGS
[5] = RNA from spinal cord of NHPs, NGS
[6] = RNA from brain of BALB/c mice, NGS

Row | Sequence | Fold enrichment over AAV9 in the brain of Mice (C57Bl/6) (brain [1]; RNA NGS, brain of C57Bl/6 mice) [fold] | Fold enrichment over AAV9 in the brain of NHPs ([2]; RNA NGS, brain of NHPs) [fold] | Fold enrichment over AAV9 in the spinal cord of NHPs ([2]; RNA NGS, spinal cord of NHPs) [fold] | Fold enrichment over AAV9 in the brain of Mice (BALB/c) (brain [3]; RNA NGS, brain of BALB/c mice) [fold] | Fold enrichment over AAV9 in the brain of Mice (C57Bl/6) (brain [1]; [4]) [fold] | Fold enrichment over AAV9 in the brain of NHPs ([2]; RNA from brain of NHPs, NGS) [fold] | Fold enrichment over AAV9 in the spinal cord of NHPs [2, 5] [fold] | Fold enrichment over AAV9 in the brain of Mice (BALB/c) (brain [3]; [6]) [fold]
1 | GSGQNAGSFPNQQT | 1.091 | 1.928 | 12.575 | 0.286 |  |  |  | 
2 | GSIAHVGTGQNQQT | 0.837 | 1.696 | 1.264 | 1.045 |  |  |  | 
3 | GSGQNQKGMQPNQT |  |  |  |  | 0.775 | 1.326 | 3.139 | 1.059
4 | GSGLSVQSGQNQQT | 1.695 | 2.637 | 2.929 | 1.005 |  |  |  | 
5 | GPGLSGHSGQNQQT | 1.154 | 1.571 | 1.603 | 1.297 |  |  |  | 
6 | GSGNYRDHEQNQQT |  |  |  |  | 0.287 | 1.193 | 7.389 | 0.222
7 | GSSRVPVSGQNQQT |  |  |  |  | 0.870 | 1.385 | 13.191 | 0.485
8 | GSGSQHSKAQNQQT |  |  |  |  | 0.638 | 1.168 | 0.312 | 0.916
9 | GSGQNQQTMIANIR | 0.379 | 1.076 | 0.000 | 0.458 |  |  |  | 
10 | GSGQNGHLSLKQQT | 0.718 | 2.362 | 1.896 | 0.270 |  |  |  | 
11 | GSGQNQQKLSSMST |  |  |  |  | 1.160 | 1.286 | 1.586 | 1.052
12 | GSLLSAGMGQNQHT | 0.589 | 1.856 | 6.168 | 0.342 |  |  |  | 
13 | GSGQNQQLKSSAQT | 0.908 | 1.891 | 1.197 | 0.716 |  |  |  | 
14 | GSGQNQAMTHGDQT |  |  |  |  | 0.357 | 1.257 | 1.878 | 0.259
15 | GSGLPDRNLQNQQT | 1.136 | 1.471 | 7.306 | 0.611 |  |  |  | 
16 | GSGQREPKASNQQT |  |  |  |  | 0.399 | 1.214 | 2.793 | 0.520

Row | Sequence | Fold enrichment over AAV9 in the brain of Mice (C57Bl/6) (brain [1]; RNA NGS, brain of C57Bl/6 mice) [fold] | Fold enrichment over AAV9 in the brain of NHPs ([2]; RNA NGS, brain of NHPs) [fold] | Fold enrichment over AAV9 in the spinal cord of NHPs ([2]; RNA NGS, spinal cord of NHPs) [fold] | Fold enrichment over AAV9 in the brain of Mice (BALB/c) (brain [3]; RNA NGS, brain of BALB/c mice) [fold] | Fold enrichment over AAV9 in the brain of Mice (C57Bl/6) (brain [1]; [4]) [fold] | Fold enrichment over AAV9 in the brain of NHPs ([2]; RNA from brain of NHPs, NGS) [fold] | Fold enrichment over AAV9 in the spinal cord of NHPs [2, 5] [fold] | Fold enrichment over AAV9 in the brain of Mice (BALB/c) (brain [3]; [6]) [fold]
17 | GSVHLSVTGQNQQT | 0.741 | 2.882 | 1.157 | 0.282 |  |  |  | 
18 | GQIVQNPSGQNQQT | 1.446 | 3.133 | 0.406 | 0.635 |  |  |  | 
19 | GSGQNQQTSVSQQT |  |  |  |  | 1.030 | 1.342 | 1.614 | 0.913
20 | GSGQNQQSSFNVQT | 1.307 | 0.998 | 0.000 | 0.675 |  |  |  | 
21 | GSGIPAPRLQNQQT |  |  |  |  | 0.583 | 1.273 | 4.162 | 0.396
22 | GGYHSQTSGQNQQT | 1.740 | 1.978 | 2.642 | 1.525 |  |  |  | 
23 | GSGQNQHSLGNYQT | 1.077 | 2.143 | 1.896 | 0.606 |  |  |  | 
24 | GSGSPRQLSQNQQT | 0.520 | 1.621 | 0.873 | 0.273 |  |  |  | 
25 | GSGTSGKTGKNQQT |  |  |  |  | 0.358 | 1.333 | 4.033 | 0.676
26 | GSGQNQQPHLKSLT | 1.096 | 1.457 | 5.016 | 0.740 |  |  |  | 
27 | GSGQDMKQHHNQQT | 0.358 | 1.501 | 1.638 | 0.239 |  |  |  | 
28 | GSGQALSSSGNQQT |  |  |  |  | 0.894 | 1.351 | 6.860 | 0.931
29 | GSGDDSRVGQNQQT |  |  |  |  | 0.466 | 1.172 | 0.191 | 0.156
30 | GSGSHRDVSQNQQT | 0.626 | 2.843 | 4.022 | 0.550 |  |  |  | 
31 | GSGLSHATQQNQQT | 1.111 | 2.640 | 7.819 | 0.638 |  |  |  | 
32 | GMRMEYQSGQNQQT | 0.644 | 1.729 | 3.695 | 0.632 |  |  |  | 
